Assay results: ChEMBL document CHEMBL6074646, “Carvacrol-conjugated 3-Hydroxybenzoic Acids: Design, Synthesis, cardioprotective potential against doxorubicin-induced Cardiotoxicity, and ADMET study” (Bioorg Med Chem Lett, 2024)
Active and inactive are the calls of the source. The rule behind the calls is not given here.

Experiments:
[1] = test system: H9c2; test: Protection against doxorubicin-induced cardiotoxicity in rat H9c2 cells assessed as increase in cell viability at 10 uM preincubated for 24 hrs followed by doxorubicin stimulation and measured after 24 hrs; assay type: functional, cell-based; details: time 48.0 hrs
[2] = test system: H9c2; test: Cytotoxicity against rat H9C2 cells at 10 uM incubated for 48 hrs by cell counting assay; assay type: toxicity, cell-based; details: h9c2, 48 h

Row | SMILES | Activity [1] | Activity [2]
1 | Cc1cc(CO)c(C(C)C)cc1OCCCCOC(=O)c1cccc(O)c1 | inactive | Non-toxic
2 | Cc1ccc(C(C)C)cc1OC(=O)CCCOC(=O)c1cccc(O)c1 | – | Non-toxic
3 | Cc1ccc(C(C)C)cc1O [CARVACROL] | inactive | Non-toxic
4 | Cc1ccc(C(C)C)cc1OCCCOC(=O)c1cccc(O)c1 | – | Non-toxic
5 | Cc1cc(CO)c(C(C)C)cc1OC(=O)CCCOC(=O)c1cccc(O)c1 | inactive | Non-toxic
6 | Cc1ccc(C(C)C)cc1OC(=O)COC(=O)c1cccc(O)c1 | – | Non-toxic
7 | Cc1cc(CO)c(C(C)C)cc1OCCOC(=O)c1cccc(O)c1 | inactive | Non-toxic
8 | Cc1cc(CO)c(C(C)C)cc1OC(=O)CCOC(=O)c1cccc(O)c1 | inactive | Non-toxic
9 | Cc1ccc(C(C)C)cc1OCCCCOC(=O)c1cccc(O)c1 | Active | Non-toxic
10 | Cc1ccc(C(C)C)cc1OCCOC(=O)c1cccc(O)c1 | – | Non-toxic
11 | Cc1cc(CO)c(C(C)C)cc1OC(=O)COC(=O)c1cccc(O)c1 | inactive | Non-toxic
12 | Cc1cc(CO)c(C(C)C)cc1OCCCOC(=O)c1cccc(O)c1 | inactive | Non-toxic
13 | Cc1ccc(C(C)C)cc1OC(=O)CCOC(=O)c1cccc(O)c1 | – | Non-toxic
14 | O=C(O)c1cccc(O)c1 [3-HYDROXYBENZOIC ACID] | inactive | Non-toxic
